{"source": "paper PMC2346451", "about": "(PLoS ONE, 2008)", "assay_type_in_all_cases": "cell-based", "key": {"Chicken TRPV1 (cTRPV1)": {"system": "Chicken TRPV1 (cTRPV1)", "assay": "Whole-cell patch clamp of chicken TRPV1 expressed in HEK-293T cells", "procedure": "(§1) Transformed human embryonic kidney-293 (HEK-293T) cells were grown in Dulbecco's modified Eagle's medium (DMEM)+F-12 supplemented with 10% fetal calf serum, and 1% penicillin/streptomycin in 5% CO2 at 37°C. Cells grown to 90% confluence in 35 mm Petri dishes were transiently transfected with plasmid DNA encoding a TRP channel construct (1 µg). Rat TRPV1 (rTRPV1) was cloned into an enhanced green fluorescent protein-containing vector (pTracer-CMV2; Invitrogen, Carlsbad, CA). Chicken TRPV1 (cTRPV1), the chicken rat TRPV1 chimera (crcTRPV1), rat TRPV2 (rTRPV2), mouse TRPV3 (mTRPV3), mouse TRPV4 (mTRPV4), rat TRPM8 (rTRPM8), and rat TRPA1 (rTRPA1), were cloned into pcDNA3 and co-transfected with enhanced green fluorescent protein (0.1 µg) to follow expression. The cTRPV1 and crcTRPV1 clones were kindly provided by Dr. David Julius. Recordings were carried out 24–36 hours after transfection. Cells were split via trypsin EDTA, plated on glass coverslips at 5–10% confluence, and used 2–3 hours later.\nElectrophysiological experiments were performed using the whole-cell patch-clamp technique at room temperature. […]\nRecordings were obtained using an Axopatch 200B amplifier, Digidata 1322A analog-to-digital converter, and pClamp 8.01 software (Molecular Devices, Union City, CA). […] Cell capacitance was measured for each cell, and access resistance compensated to ∼80%. […]"}, "rat TRPM8 (rTRPM8)": {"molecular_target": "rat TRPM8 (rTRPM8) (Rattus norvegicus, UniProt Q8R455)", "sequence (Q8R455 whole entry)": "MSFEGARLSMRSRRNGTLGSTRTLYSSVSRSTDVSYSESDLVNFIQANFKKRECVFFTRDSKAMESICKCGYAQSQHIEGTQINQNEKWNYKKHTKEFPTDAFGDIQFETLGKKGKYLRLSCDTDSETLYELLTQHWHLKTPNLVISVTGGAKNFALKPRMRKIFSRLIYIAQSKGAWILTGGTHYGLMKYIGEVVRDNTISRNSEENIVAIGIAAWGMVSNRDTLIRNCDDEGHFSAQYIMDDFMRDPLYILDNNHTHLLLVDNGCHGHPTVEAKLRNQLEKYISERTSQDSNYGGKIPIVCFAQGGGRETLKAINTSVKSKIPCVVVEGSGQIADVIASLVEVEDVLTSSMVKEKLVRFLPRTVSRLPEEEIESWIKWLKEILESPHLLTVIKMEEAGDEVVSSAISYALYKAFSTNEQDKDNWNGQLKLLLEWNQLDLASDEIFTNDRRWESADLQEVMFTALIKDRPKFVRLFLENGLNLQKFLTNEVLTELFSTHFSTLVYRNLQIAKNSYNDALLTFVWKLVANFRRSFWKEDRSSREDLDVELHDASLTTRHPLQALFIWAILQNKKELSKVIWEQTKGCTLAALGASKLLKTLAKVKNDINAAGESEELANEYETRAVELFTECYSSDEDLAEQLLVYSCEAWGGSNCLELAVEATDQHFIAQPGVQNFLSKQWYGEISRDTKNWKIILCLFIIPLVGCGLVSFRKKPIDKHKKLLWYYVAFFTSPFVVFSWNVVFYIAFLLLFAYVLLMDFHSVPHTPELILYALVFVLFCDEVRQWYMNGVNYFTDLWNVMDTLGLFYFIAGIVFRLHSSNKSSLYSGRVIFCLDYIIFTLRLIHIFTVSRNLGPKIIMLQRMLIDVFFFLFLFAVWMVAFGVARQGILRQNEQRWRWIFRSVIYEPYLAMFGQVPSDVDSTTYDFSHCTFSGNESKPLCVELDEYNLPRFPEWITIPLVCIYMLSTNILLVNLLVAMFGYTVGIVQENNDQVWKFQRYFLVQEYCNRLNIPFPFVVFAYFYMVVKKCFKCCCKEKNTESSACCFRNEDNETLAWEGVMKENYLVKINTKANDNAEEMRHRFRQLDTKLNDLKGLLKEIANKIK", "assay": "Whole-cell patch clamp of rat TRPM8 expressed in HEK-293T cells", "procedure": "as §1\n(§2) Electrophysiological experiments were performed using the whole-cell patch-clamp technique at room temperature. Modified Ringer's solution with low chloride and nominal calcium contained (in mM): 130 sodium hydroxide, 5 potassium chloride, 1 magnesium chloride, 10 sodium 4-(2-hydroxyethyl)-1-piperazineethanesulfonic acid, 10 2-(N-morpholino)ethanesulfonic acid, and 20 glucose (pH 7.4; 310 milli-osmolar). […] 2 mM calcium chloride was included in the external solution where noted. To activate TRPV1, the modified Ringer's solution was made at pH 5 (low pH solution) and the chloride concentration was kept to a minimum to prevent contamination of the TRPV1 currents with acid-activated chloride currents. For recordings from heterologously expressing cells, the internal pipette solution contained (in mM): 125 cesium-Methanesulfonate, 10 cesium (1.2-bis(o-aminophenoxy)ethane-N,N,N',N'-tetraacetic acid, 8 sodium chloride, 4 magnesium adenosine triphosphate, and 10 HEPES (pH 7.2; 290 mOSM; nominal free calcium concentrations). For TRPA1 and dorsal root ganglion recordings, the internal pipette solution contained (in mM): 110 cesium-Methanesulfonate, 0.5 cesium4BAPTA, 8 sodium chloride, 0.2 calcium chloride, 4 magnesium-ATP, 4 sodium-GTP, and 10 4-(2-hydroxyethyl)-1-piperazineethanesulfonic acid (pH 7.2; 290 mOSM; 100 nM free calcium internal). MaxChelator was used to calculate the free calcium concentration (http://www.stanford.edu/cpatton/maxc.html).\n(§3) Recordings were obtained using an Axopatch 200B amplifier, Digidata 1322A analog-to-digital converter, and pClamp 8.01 software (Molecular Devices, Union City, CA). Data were low-pass filtered at 2 kHz and digitized at 5 kHz. Borosilicate glass pipettes (World Precision Instruments, Sarasota, FL) were typically 3 MΩ pipette resistance after fire polishing. Cell capacitance was measured for each cell, and access resistance compensated to ∼80%. Recordings were begun ∼5 minutes after initial rupture to ensure initial steady state conditions. Current-voltage (I-V) relations were obtained using a ramp protocol. Voltage ramps (400 ms) from −100 to +40 or +100 mV were applied every 1–2 seconds and the holding potential was either −70 mV or 0 mV (see Figure Legends). A 40 ms step was added at the beginning and end of the ramp (i.e. at −100 mV, +40 mV or +100 mV). Liquid junction potentials were not corrected.\n(§4) The dose response curves were fit with the Hill equation, where [drawing 8] and [A] is the concentration of agonist or blocker, N is the Hill coefficient, and KD is the [A] for Imeasured/Imax = 0.5. The term apparent dissociation constant is used in place of the half concentration of excitation and inhibition. […] Averaged data are presented as mean±standard error (S.E.) throughout. Statistical analysis included paired and unpaired Student's t-test comparisons of the data; p values are reported in the text."}, "rat TRPV2 (rTRPV2)": {"molecular_target": "T1, rat TRPV2 (rTRPV2) (Rattus norvegicus, UniProt Q9WUD2)", "T1 construct": "expressed in transfected cells; host or cells: HEK-293T", "T1 sequence (Q9WUD2 1-761)": "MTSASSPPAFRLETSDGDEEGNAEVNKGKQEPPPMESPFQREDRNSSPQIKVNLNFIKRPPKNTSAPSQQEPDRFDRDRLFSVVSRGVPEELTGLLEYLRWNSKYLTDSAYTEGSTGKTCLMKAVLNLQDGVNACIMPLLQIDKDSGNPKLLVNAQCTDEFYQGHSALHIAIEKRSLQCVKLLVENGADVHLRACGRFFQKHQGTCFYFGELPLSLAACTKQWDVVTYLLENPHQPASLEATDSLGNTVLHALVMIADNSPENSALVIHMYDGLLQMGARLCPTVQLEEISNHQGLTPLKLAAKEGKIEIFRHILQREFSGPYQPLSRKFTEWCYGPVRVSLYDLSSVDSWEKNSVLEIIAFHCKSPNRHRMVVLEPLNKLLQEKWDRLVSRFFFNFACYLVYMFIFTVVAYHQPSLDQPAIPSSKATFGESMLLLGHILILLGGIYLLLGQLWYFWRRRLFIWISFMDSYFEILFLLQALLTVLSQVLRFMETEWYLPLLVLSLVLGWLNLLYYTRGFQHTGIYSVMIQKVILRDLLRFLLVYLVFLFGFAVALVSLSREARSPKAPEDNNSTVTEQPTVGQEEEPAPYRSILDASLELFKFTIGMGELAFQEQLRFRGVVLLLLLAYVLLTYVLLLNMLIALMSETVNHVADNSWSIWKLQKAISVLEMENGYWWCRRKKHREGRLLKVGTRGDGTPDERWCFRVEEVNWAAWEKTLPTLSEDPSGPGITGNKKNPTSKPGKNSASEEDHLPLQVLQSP", "assay": "Whole-cell patch clamp of rat TRPV2 expressed in HEK-293T cells", "set-up": "key to Agonist efficacy: Ø - not activated", "conditions": "for Increase of agonist-evoked current prior to onset of inhibition: citral 1 mM, n = 10", "procedure": "as §1, §2, §3, §4"}, "rat TRPV1 (rTRPV1)": {"molecular_target": "rat TRPV1 (rTRPV1) (Rattus norvegicus, UniProt O35433)", "sequence (O35433 whole entry)": "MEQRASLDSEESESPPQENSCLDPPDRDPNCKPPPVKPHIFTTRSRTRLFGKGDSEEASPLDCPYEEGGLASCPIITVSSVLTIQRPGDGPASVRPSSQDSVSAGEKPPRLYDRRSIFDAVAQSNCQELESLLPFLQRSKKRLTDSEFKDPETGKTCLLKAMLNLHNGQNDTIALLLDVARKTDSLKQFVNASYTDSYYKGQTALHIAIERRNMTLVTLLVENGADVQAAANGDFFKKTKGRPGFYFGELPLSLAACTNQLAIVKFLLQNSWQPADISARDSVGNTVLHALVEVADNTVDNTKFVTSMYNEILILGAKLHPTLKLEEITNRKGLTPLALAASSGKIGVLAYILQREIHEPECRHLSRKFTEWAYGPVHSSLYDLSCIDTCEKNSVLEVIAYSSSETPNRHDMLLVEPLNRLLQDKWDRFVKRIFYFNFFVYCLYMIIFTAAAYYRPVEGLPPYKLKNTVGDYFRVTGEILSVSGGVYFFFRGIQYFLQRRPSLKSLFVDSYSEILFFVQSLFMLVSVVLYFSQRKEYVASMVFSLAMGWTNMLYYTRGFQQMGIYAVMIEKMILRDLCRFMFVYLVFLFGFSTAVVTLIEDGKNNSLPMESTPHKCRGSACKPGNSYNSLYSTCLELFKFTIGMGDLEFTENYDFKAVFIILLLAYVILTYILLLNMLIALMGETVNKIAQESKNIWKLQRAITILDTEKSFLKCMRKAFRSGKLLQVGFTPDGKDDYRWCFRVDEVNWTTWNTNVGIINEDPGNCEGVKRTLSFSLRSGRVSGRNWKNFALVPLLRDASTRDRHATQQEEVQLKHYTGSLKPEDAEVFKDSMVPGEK", "assay": "Whole-cell patch clamp of rat TRPV1 expressed in HEK-293T cells", "conditions": "for Increase of agonist-evoked current prior to onset of inhibition: citral 1 mM, n = 8", "procedure": "as §1, §2, §3, §4"}}, "note": "Like-named read-outs stand apart in the source and are kept apart here."}
{"smiles": "CC(C)=CCCC(C)=CC=O", "note": "[citral, 3,7-dimethyl-2,6-octadienal]", "values": [{"measurement": "Activation of cTRPV1 current", "setting": "Chicken TRPV1 (cTRPV1); n = 6", "value": "did not activate"}, {"measurement": "Effect on cTRPV1 currents activated by pH 5 solution", "setting": "Chicken TRPV1 (cTRPV1); pH 5", "value": "reversibly inhibited"}, {"measurement": "Hill coefficient (activation)", "setting": "rat TRPM8 (rTRPM8)", "value": 1.6}, {"measurement": "Reversibility of citral inhibition of agonist-evoked current", "setting": "rat TRPM8 (rTRPM8)", "value": "essentially irreversible"}, {"measurement": "Hill coefficient (inhibition)", "setting": "rat TRPM8 (rTRPM8); +40 mV", "value": 1.7}, {"measurement": "Increase in TRPM8 current evoked by menthol after citral washout", "setting": "rat TRPM8 (rTRPM8); after 60 seconds washout, n = 3", "value": "4±2", "unit": "%"}, {"measurement": "Kd", "setting": "rat TRPM8 (rTRPM8); citral activation, nominal external calcium, read-out: Activation KD, app", "value": 33.5, "unit": "µM"}, {"measurement": "Kd", "setting": "rat TRPM8 (rTRPM8); citral block of menthol (1 mM)-evoked current, +40 mV, read-out: Inhibition KD, app", "value": 188, "unit": "µM"}, {"measurement": "Kd", "setting": "rat TRPM8 (rTRPM8); citral block of menthol (1 mM)-evoked current, −40 mV, read-out: Inhibition KD, app", "value": 241, "unit": "µM"}, {"measurement": "Agonist efficacy Imenthol (30 µM)/Icitral (300 µM)", "setting": "rat TRPM8 (rTRPM8); fold larger, −40 mV, n = 5", "value": "Imenthol (30 µM)/Icitral (300 µM) 74±28 fold larger (n = 5; −40 mV)"}, {"measurement": "Effect of citral addition on agonist-induced current", "setting": "rat TRPM8 (rTRPM8); menthol-induced, n = 4", "value": "not increased"}, {"measurement": "Time for >50% inhibition of peak TRP current in continued presence of citral", "setting": "rat TRPM8 (rTRPM8); n = 7", "value": "≤ 14", "unit": "s"}, {"measurement": "Hill coefficient (inhibition)", "setting": "rat TRPM8 (rTRPM8); −40 mV", "value": 2.0}, {"measurement": "Increase of inward ITRPM8 above baseline", "setting": "rat TRPM8 (rTRPM8); −40 mV", "value": 2, "unit": "fold"}, {"measurement": "Agonist efficacy", "setting": "rat TRPV2 (rTRPV2)", "value": "Ø"}, {"measurement": "Reversibility of citral inhibition of agonist-evoked current", "setting": "rat TRPV2 (rTRPV2)", "value": "essentially irreversible"}, {"measurement": "Increase of agonist-evoked current prior to onset of inhibition", "setting": "rat TRPV2 (rTRPV2); +100 mV", "value": "2.2±0.2", "unit": "fold"}, {"measurement": "Increase of agonist-evoked current prior to onset of inhibition", "setting": "rat TRPV2 (rTRPV2); −100 mV", "value": "2.5±0.4", "unit": "fold"}, {"measurement": "Hill coefficient (inhibition)", "setting": "rat TRPV2 (rTRPV2); citral block of 2-aminoethyldiphenyl borate-evoked current", "value": 2.4}, {"measurement": "Kd", "setting": "rat TRPV2 (rTRPV2); read-out: Inhibition KD, app", "value": 534, "unit": "µM"}, {"measurement": "Reversibility of citral inhibition of agonist-evoked current", "setting": "rat TRPV1 (rTRPV1)", "value": "essentially irreversible"}, {"measurement": "pH 5-evoked TRPV1 current remaining after citral washout", "setting": "rat TRPV1 (rTRPV1); 30 seconds after citral washout, n = 5", "value": "0.2±0.1", "unit": "%"}, {"measurement": "Hill coefficient (activation)", "setting": "rat TRPV1 (rTRPV1); +40 mV", "value": 2.9}, {"measurement": "Increase of agonist-evoked current prior to onset of inhibition", "setting": "rat TRPV1 (rTRPV1); +40 mV", "value": "1.6±0.2", "unit": "fold"}, {"measurement": "Increase of agonist-evoked current prior to onset of inhibition", "setting": "rat TRPV1 (rTRPV1); −100 mV", "value": "1.8±0.3", "unit": "fold"}, {"measurement": "Kd", "setting": "rat TRPV1 (rTRPV1); citral activation, +40 mV, nominal external calcium, read-out: Activation KD, app", "value": 417, "unit": "µM"}, {"measurement": "Kd", "setting": "rat TRPV1 (rTRPV1); citral activation, −40 mV, nominal external calcium, read-out: Activation KD, app", "value": 465, "unit": "µM"}, {"measurement": "Hill coefficient (inhibition)", "setting": "rat TRPV1 (rTRPV1); citral block of pH5-evoked current", "value": 1.3}, {"measurement": "Kd", "setting": "rat TRPV1 (rTRPV1); citral block of pH5-evoked current, read-out: Inhibition KD, app", "value": 187, "unit": "µM"}, {"measurement": "Agonist efficacy IpH5/Icitral (1 mM)", "setting": "rat TRPV1 (rTRPV1); fold larger, −40 mV, n = 3", "value": "IpH5/Icitral (1 mM) 28±8 fold larger (n = 3; −40 mV)"}, {"measurement": "Time for >50% inhibition of peak TRP current in continued presence of citral", "setting": "rat TRPV1 (rTRPV1); n = 9", "value": "≤ 14", "unit": "s"}, {"measurement": "Hill coefficient (activation)", "setting": "rat TRPV1 (rTRPV1); −40 mV", "value": 2.7}, {"measurement": "Increase of inward ITRPV1 above baseline", "setting": "rat TRPV1 (rTRPV1); −40 mV", "value": 14, "unit": "fold"}]}
